From publication PMC9728921, “Characterization of a KDM5 small molecule inhibitor with antiviral activity against hepatitis B virus” (PLOS ONE, 2022) come the findings set out here.

The structures appear in SMILES notation.

Series [1] has as its system HBV. In words: Intracellular HBV RNA (vRNA) by qRT-PCR in HBV-infected PHH. It is filed as cell-based. The following applies: Hepatitis B virus. The method, then:
(§1) Approximately 24 hours after plating, PHH were infected with HepAD38-derived GTD virus at 500 viral genome equivalents per cell in maintenance medium supplemented with 4% PEG 8000 (Promega, Madison, WI; V3011). For patient sera infections, PHH were infected with 6 μl of patient sera in maintenance medium supplemented with 4% PEG 8000. Infections were allowed to proceed for 20–24 hours before removing remaining extracellular virions by washing with maintenance medium three times. […]
Intracellular HBV viral RNA was isolated from PHH using the RNeasy 96 kit (Qiagen, 74182) following the manufacturer’s recommended protocol. Briefly, 125 μl of Qiagen RLT lysis buffer was added to PHH. The PHH lysate was then thoroughly mixed with 125 μl of 70% ethanol, transferred into a RNeasy 96 well plate, and placed onto a vacuum manifold (Qiagen; 19504). The plate was washed using RW1 and RPE buffers, followed by centrifugation (Sigma-Aldrich, Model 4-16S) at 6000 rpm for 2 minutes. The RNA was then eluted twice with 60 μl of nuclease free water for a total of 120 μl RNA.
After elution, DNase digestion by Turbo DNase (Thermo Fisher Scientific; AM2239) was performed to remove any contaminating DNA. After 30 minutes of DNase treatment at 37°C, Turbo DNase was inactivated by adding 15 mM of EDTA and heating the reaction to 75°C for 10 minutes in a thermo cycler (Thermo Fisher Scientific; Veriti 96 Well Thermal Cycler).
GAPDH or RPLP0 mRNA expression was used to normalize target gene expression. Levels of HBV RNA for all donors were calculated as fold change relative to no drug treated sample using the 2-ΔΔCt method.
(§2) Antiviral activity of test compounds was determined from vRNA, vDNA, HBeAg, and HBsAg data by comparing compound-treated PHH to DMSO (vehicle)-treated PHH to generate a percent of DMSO control value (% DMSO control). The % DMSO control was calculated by the following equation: %DMSOControl=100xXc/XD where Xc is the signal from the compound-treated PHH and XD is the signal from the DMSO-treated PHH. The % DMSO control for vRNA, vDNA, HBeAg, HBsAg, GAPDH, or RPLP0 was plotted versus the log of each compound concentration in GraphPad Prism (version 6; Graphpad Software, LaJolla, CA) to generate dose-response curves. […] Dose-response curves were fitted using the nonlinear regression equation “log(agonist) versus response–variable slope (four parameters)” in GraphPad Prism to determine EC50 values.

In series [2] the test system is HBV. In words: Secreted HBeAg by immunoassay in HBV-infected PHH. As to conditions: Hepatitis B virus. The class given is cell-based. How it is done:
as §1
(§3) Hepatitis B e antigen (HBeAg) and Hepatitis B surface antigen (HBsAg) were detected in culture media at the indicated time by ELISA or electrochemiluminescence assay (MSD). The HBeAg and HBsAg ELISAs were performed using the HBeAg ELISA kit (International Immuno-Diagnostics, Foster City, CA) and HBsAg ETI-MAK-2 plus kit (DiaSorin, Stillwater, MN), respectively according to the manufacturer’s instructions. Concentrations were calculated by interpolation from standard curves with purified HBeAg and HBsAg. The MSD assay was performed according to the manufacturer’s instructions (Meso Scale Diagnostics, Rockville, MD). Briefly, cultured supernatants were inactivated with 0.5% Triton X-100 (30 minutes at 37°C) and then transferred into plates pre-spotted with both an anti-HBeAg antibody (Genway Bio, San Diego, CA) and a custom anti-HBsAg antibody. The plates were then incubated for two hours at room temperature with gentle shaking, followed by a wash step in PBS with 0.5% Tween. MSD sulfate tags anti-A and anti-B (1 μg/mL each) were then added to the wells and the plates incubated for a further two hours at room temperature with gentle shaking, followed by another wash step in PBS with 0.5% Tween. A 2X solution of MSD T Buffer Read was then added and the plate was read on a Sector Imager 6000 plate scanner.
as §2

For series [3], the system named is HBV. The series can be described thus: HBV antiviral activity in HBV-infected PHH (overall; HBsAg and HBeAg over time). It is filed as cell-based, Hepatitis B virus. The method, then:
Approximately 24 hours after plating, PHH were infected with HepAD38-derived GTD virus at 500 viral genome equivalents per cell in maintenance medium supplemented with 4% PEG 8000 (Promega, Madison, WI; V3011). For patient sera infections, PHH were infected with 6 μl of patient sera in maintenance medium supplemented with 4% PEG 8000. Infections were allowed to proceed for 20–24 hours before removing remaining extracellular virions by washing with maintenance medium three times.
For the pulse dose regimen, medium containing compound was removed after two hours incubation and replaced with fresh maintenance medium every three to four days. Cells in the pulse dose experiment received only one dose of compound (Day = 0).
as §3

A short description of a further series: Cytotoxicity CC50, MT-4. The class given is cell-based. As to conditions: human, MT-4 cells (T-lymphoblastoid cell line). The source says: (§4) a Values represent the geometric mean and multiplicative standard deviation of 3 – 5 primary human hepatocyte (PHH) donors or 5 – 10 independent experiments.
(§5) b MT-4: human T-lymphoblastoid cell line; PBMC: peripheral blood mononuclear cell; Gal-HepG2: galactose adapted human hepatoblastoma cell line; Huh-7: human hepatoma cell line; Gal-PC3: galactose adapted human prostate carcinoma cell line; MRC-5: Medical Research Council 5 embryonal lung fibroblast; NRVM: neonatal rat ventricular cardiomyocytes

The nature of series [4]: Cytotoxicity CC50, Gal-HepG2. The class given is cell-based. As to conditions: human, Gal-HepG2 cells (galactose adapted hepatoblastoma cell line).
Source text: as §4, §5

Series [5] can be described thus: Cytotoxicity CC50, Gal-PC3. It is filed as cell-based. The following applies: human.
Source text: as §4, §5

The next series in a line: Cytotoxicity CC50, MRC-5. It is filed as cell-based. The following applies: human, MRC-5 cells (embryonal lung fibroblasts).
Source text: as §4, §5

[6] abbreviates: read-out: vRNA EC50, PHH donor BCD, HBV GTD, treated every three to four days for 14 days.
The mark [7] stands for this setting: read-out: vRNA EC50, PHH donor Hu276, HBV GTD, treated every three to four days for 14 days.
[8] abbreviates: read-out: vRNA EC50, PHH donor Hu349, HBV GTD, treated every three to four days for 14 days.
Setting [9] is: read-out: vRNA EC50, PHH donor Hu4167, HBV GTD, treated every three to four days for 14 days.
Where [10] appears, read: read-out: vRNA EC50, PHH donor Hu7272, HBV GTD, treated every three to four days for 14 days.
Where [11] appears, read: read-out: vRNA EC50, PHH donor Hu8130, HBV GTD, treated every three to four days for 14 days.
The mark [12] stands for this setting: read-out: vRNA EC50, PHH donor Hu8181, HBV GTD, treated every three to four days for 14 days.
[13] abbreviates: read-out: HBeAg EC50, PHH donor BCD, HBV GTD, treated every three to four days for 14 days.
Setting [14] is: read-out: HBeAg EC50, PHH donor Hu276, HBV GTD, treated every three to four days for 14 days.
Where [15] appears, read: read-out: HBeAg EC50, PHH donor Hu349, HBV GTD, treated every three to four days for 14 days.
Setting [16] is: read-out: HBeAg EC50, PHH donor Hu4167, HBV GTD, treated every three to four days for 14 days.
[17] abbreviates: read-out: HBeAg EC50, PHH donor Hu7272, HBV GTD, treated every three to four days for 14 days.
The mark [18] stands for this setting: read-out: HBeAg EC50, PHH donor Hu8130, HBV GTD, treated every three to four days for 14 days.
The mark [19] stands for this setting: read-out: HBeAg EC50, PHH donor Hu8181, HBV GTD, treated every three to four days for 14 days.
Where [20] appears, read: 10 μM every three to four days, three PHH donors.

As for `CCOC(=O)c1cc(CNCC(=O)N(CC)CCN(C)C)ncc1Br` [GS-420], the half-maximal effective concentration (EC50) in the series with HBV [1] (setting [6]), in the series on HBV [1] (setting [7]), in the series with HBV [1] (setting [8]), in the series with HBV [1] (setting [9]), in the series on HBV [1] (setting [10]) and with HBV [1] (setting [11]) was over 10000 nM throughout. The EC50 in the series with HBV [1] (setting [12]), with HBV [2] (setting [13]), in the series with HBV [2] (setting [14]), in the series with HBV [2] (setting [15]), in the series on HBV [2] (setting [16]) and with HBV [2] (setting [17]) was over 10000 nM in each case. Further, the EC50 in the series on HBV [2] (setting [18]) and in the series on HBV [2] (setting [19]) was over 10000 nM each time. For the same compound, in the series on HBV [3] (concentrations up to 10 μM), the “HBV antiviral activity in PHH” value is given as “did not exhibit HBV antiviral activity”.

For the compound `CCOC(=O)c1ccnc(CNCC(=O)N(CC)CCN(C)C)c1` [GS-5801], the EC50 in the series on HBV [1] (336 h, read-out: EC50 range across genotypes, intracellular HBV RNA, range across genotypes, 14 days of dosing) was 51 to 2700 nM; in the series on HBV [1] (336 h, read-out: EC50 range for intracellular RNA, range over the seven PHH donors tested, HBV GTD, Day 14) it was 34 to 1100 nM; with HBV [1] (setting [6]), 34 nM; in the series with HBV [1] (setting [7]), 42 nM; in the series with HBV [1] (setting [8]) it was 430 nM; in the series with HBV [1] (setting [9]) it was 47 nM. Also, the EC50 in the series on HBV [1] (setting [10]) was 930 nM; in the series on HBV [1] (setting [11]) it was 1100 nM; with HBV [1] (setting [12]) it was 160 nM; in the series on HBV [1] (read-out: vRNA EC50, PHH infected with HBV GTA, treated every three to four days for 13 days) it was 1800 nM; in the series with HBV [1] (read-out: vRNA EC50, PHH infected with HBV GTC, treated every three to four days for 13 days), 51 nM; with HBV [1] (read-out: vRNA EC50, PHH infected with HBV GTD, treated every three to four days for 13 days (Table 3)), 430 nM. The EC50 is 2700 nM in the series on HBV [1] (read-out: vRNA EC50, PHH infected with HBV GTE, treated every three to four days for 13 days); 300 to 1400 nM in the series on HBV [2] (336 h, read-out: EC50 range across genotypes, secreted HBeAg, range across genotypes, 14 days of dosing); 14 to 1100 nM with HBV [2] (336 h, read-out: EC50 range for secreted HBeAg, range over the seven PHH donors tested, HBV GTD, Day 14); 14 nM with HBV [2] (setting [13]); 100 nM in the series on HBV [2] (setting [14]); 380 nM in the series on HBV [2] (setting [15]). In addition, the EC50 in the series on HBV [2] (setting [16]) is 150 nM; in the series with HBV [2] (setting [17]), 610 nM; in the series on HBV [2] (setting [18]), 1100 nM; in the series on HBV [2] (setting [19]), 110 nM; with HBV [2] (read-out: HBeAg EC50, PHH infected with HBV GTA, treated every three to four days for 13 days), 1100 nM; in the series with HBV [2] (read-out: HBeAg EC50, PHH infected with HBV GTD, treated every three to four days for 13 days (Table 3)), 300 nM. In the series on HBV [2] (read-out: HBeAg EC50, PHH infected with HBV GTE, treated every three to four days for 13 days), the EC50 was found to be 1400 nM. Also, the CC50 was 51000 ± 1200 nM in “Cytotoxicity CC50, MT-4”; over 44000 nM in series [4]; over 44000 nM in series [5]; over 44000 nM in “Cytotoxicity CC50, MRC-5”. Moreover, the “time course throughout which antiviral activity was maintained” value in the series with HBV [3] (setting [20]) was in the range of 30 to 32 days. Further, in the series on HBV [3] (setting [20]), the “time to maximal HBsAg and HBeAg inhibition after initiation of treatment” value was 12 to 17 days. The “time inhibition of HBeAg and HBsAg was sustained following a pulse dose” value with HBV [3] (single two-hour pulse dose, 10 μM, donor) was “up to 20 days”.

Regarding `CCN(CCN(C)C)C(=O)CNCc1cc(C(=O)O)ccn1` [GS-080], the CC50 was over 57000 nM in the series “Cytotoxicity CC50, MT-4”; over 44000 nM in series [4]; over 44000 nM in series [5]; over 44000 nM in the series “Cytotoxicity CC50, MRC-5”.
